Assay results published in BindingDB's records for doi:10.1021/jm00108a031 (Roche Research Center, 1991).

Columns and labels:
[1] = In vitro for platelet activating factor receptor antagonist activity in a binding assay using washed whole dog platelets.
[2] = Compound tested in vitro for Platelet activating factor receptor antagonist activity in a binding assay using washed whole dog platelets

Structure (SMILES) | IC50 [1] | IC50 [2]
Cc1nnc2n1-c1sc(CCc3ccc4c(c3)CCC4)cc1C(c1ccccc1Cl)=NC2 | 20 nM | 
Cc1nnc2n1-c1sc(CCc3ccc(CC(C)C)cc3)cc1C(c1ccccc1Cl)=NC2 | 30 nM | 
Cc1nnc2n1-c1sc(C#Cc3ccc4c(c3)CCC4)cc1C(c1ccccc1Cl)=NC2 | 380 nM | 
Cc1nnc2n1-c1sc(C#Cc3cccc4ccccc34)cc1C(c1ccccc1Cl)=NC2 |  | 150 nM
Cc1nnc2n1-c1sc(-c3nn[nH]c3C(=O)N3CCOCC3)cc1C(c1ccccc1Cl)=NC2 | 1000 nM | 
Cc1nnc2n1-c1sc(/C=C\c3ccc(CC(C)C)cc3)cc1C(c1ccccc1Cl)=NC2 | 80 nM | 
Cc1nnc2n1-c1sc(C#CCO)cc1C(c1ccccc1Cl)=NC2 | 180 nM | 
Cc1nnc2n1-c1sc(-c3cc(=O)[nH][nH]3)cc1C(c1ccccc1Cl)=NC2 | 1000 nM | 
Cc1nnc2n1-c1sc(/C=C\c3ccc4c(c3)CCC4)cc1C(c1ccccc1Cl)=NC2 | 110 nM | 
Cc1nnc2n1-c1sc(C#Cc3ccc(-c4ccccn4)s3)cc1C(c1ccccc1Cl)=NC2 | 60 nM | 
CCCCc1ccc(/C=C\c2cc3c(s2)-n2c(C)nnc2CN=C3c2ccccc2Cl)cc1 | 10 nM | 
Cc1nnc2n1-c1sc(/C=C\c3ccccn3)cc1C(c1ccccc1Cl)=NC2 |  | 400 nM
Cc1nnc2n1-c1sc(CCc3ccc4c(c3)CCO4)cc1C(c1ccccc1Cl)=NC2 | 20 nM | 
Cc1nnc2n1-c1sc(C#CC(=O)N3CCOCC3)cc1C(c1ccccc1Cl)=NC2 |  | 260 nM
CCCCc1ccc(CCc2cc3c(s2)-n2c(C)nnc2CN=C3c2ccccc2Cl)cc1 | 10 nM | 
Cc1cc(C#Cc2cc3c(s2)-n2c(C)nnc2CN=C3c2ccccc2Cl)cc2c1OC(C)(C)C2 | 400 nM | 

Structure (SMILES) | IC50 [1] | IC50 [2]
Cc1nnc2n1-c1sc(CCc3ccc(C4CCCCC4)cc3)cc1C(c1ccccc1Cl)=NC2 | 35 nM | 
CCCCc1ccc(C#Cc2cc3c(s2)-n2c(C)nnc2CN=C3c2ccccc2Cl)cc1 | 650 nM | 
Cc1nnc2n1-c1sc(C#Cc3ccc(CC(C)C)cc3)cc1C(c1ccccc1Cl)=NC2 |  | 100 nM
Cc1nnc2n1-c1sc(CCc3ccc(-c4ccccn4)s3)cc1C(c1ccccc1Cl)=NC2 | 8 nM | 
Cc1cc(CCc2cc3c(s2)-n2c(C)nnc2CN=C3c2ccccc2Cl)cc2c1OC(C)(C)C2 | 400 nM | 
Cc1nnc2n1-c1sc(C#Cc3ccc(C4CCCCC4)cc3)cc1C(c1ccccc1Cl)=NC2 | 300 nM | 
C#Cc1cc2c(s1)-n1c(C)nnc1CN=C2c1ccccc1Cl | 10 nM | 
Cc1nnc2n1-c1sc(C#C[Si](C)(C)C)cc1C(c1ccccc1Cl)=NC2 | 20 nM | 
Cc1nnc2n1-c1sc(C#Cc3ccccc3)cc1C(c1ccccc1Cl)=NC2 |  | 100 nM
Cc1nnc2n1-c1sc(CCc3ccc(-n4ccnc4)cc3)cc1C(c1ccccc1Cl)=NC2 | 100 nM | 
Cc1nnc2n1-c1sc(/C=C\c3ccc(C4CCCCC4)cc3)cc1C(c1ccccc1Cl)=NC2 | 120 nM | 
Cc1nnc2n1-c1sc(/C=C\C(=O)N3CCOCC3)cc1C(c1ccccc1Cl)=NC2 | 180 nM | 
Cc1nnc2n1-c1sc(C(CC(=O)N3CCOCC3)N=N)cc1C(c1ccccc1Cl)=NC2 (configuration not stated) | 420 nM | 
Cc1nnc2n1-c1sc(C#Cc3ccccn3)cc1C(c1ccccc1Cl)=NC2 | 250 nM | 
Cc1nnc2n1-c1sc(C#Cc3ccc4c(c3)CCO4)cc1C(c1ccccc1Cl)=NC2 | 420 nM | 
Cc1nnc2n1-c1sc(Br)cc1C(c1ccccc1Cl)=NC2 [2-Bromo-4-(2-chloro-phenyl)-9-methyl-6H-1-thia-5,7,8,9a-tetraaza-cyclopenta[e]azulene] | 300 nM | 
